# Read-outs that look alike come from different tables or passages of the source.
# Key:
# [1] = Pharmacokinetic study in mice; assay type: in vivo, SD mice; settings: plasma; for Tmax: 10 mg/kg
# Procedure: The animal studies were approved by the Institutional Animal Care and Used Committee. The pharmacokinetic study of DMC-HA was carried out with female SD mice. The compound (2.0 mM) was suspended in DMSO (10%) and Tween 80 (10%) in PBS (80%). A single dose of 1 mg/kg was administrated by intravenous injection (n = 3 mice), followed by blood collection via retro-orbital bleeding at 0.25, 0.5, 2.0, 4.0, 8.0, 12.0, and 24 h. Whole blood samples were added to a tube containing ethylenediaminetetraacetic acid (EDTA) and centrifuged. Plasma was collected and stored at −20°C. Compound standards were prepared with pooled plasma samples. Fifty microliters of thawed plasma and standards were added into wells of Ostro Pass-Through Sample Preparation Plate (Waters) for solid phase extraction. Acetonitrile (150 μl) containing internal standard was added and mixed by pipette. Next, clear sample solution was eluted by positive pressure processor under 60 psi for 5 min. The sample solution can be used directly for LC-MS/MS analysis.
# The preliminary in vivo pharmacokinetic study for DMC-HA was performed in mice. SD mice were intravenously injected with 1 mg/kg DMC-HA or orally administrated with 10 mg/kg DMC-HA. Plasma samples were collected and analyzed with LC-MS/MS.
# all eight cell lines = assay: Antiproliferative activity, panel of eight cancer cell lines (summary); assay type: cell-based; settings: Homo sapiens; summary over the eight cancer cell lines of Table 2; read-out: IC50 values against all eight cell lines
# Procedure: Cells (5 × 10^4) were seeded into 96-well plates and exposed to vehicle (PBS) or different concentrations of compounds for 72 h. Cell viability was measured using the 3-(4,5-dimethylthiazol-2-yl)-2,5-diphenyltetrazolium bromide (MTT) assay and was expressed as a ratio to the absorbance value at 570 nm of the control cells.
# As DMC-HA was identified as a potent novel inhibitor for HDACs, its antiproliferative activities on a panel of cancer cell lines and normal cells were evaluated, including four glioma cell lines, and the results are shown in Table 2. Vorinostat and curcumin were also tested as positive controls. […].
# [2] = female, SD, mouse, iv, i.v. 1 mg/kg
# [3] = female, SD, mouse, po, p.o. 10 mg/kg
smiles,measurement,setting,value
COc1cc(/C=C/C(=O)CC(=O)/C=C/c2ccc(/C=C/C(=O)NO)cc2)ccc1O [DMC-HA],AUC(0-inf),[1]; [2],502 ng·h/mL
same,AUC(0-t),[1]; [2],493 ng·h/mL
same,clearance,[1]; [2],30 mL/min/kg
same,half-life,[1]; [2],3.2 h
same,bioavailability,"[1]; female, SD, mouse, oral, p.o. 10 mg/kg vs i.v. 1 mg/kg, read-out: F (oral bioavailability)",40.2%
same,Tmax,"[1]; female, SD, mouse, po, p.o. 10 mg/kg, read-out: Tmax",0.67 h
same,Tmax,"[1]; female, SD, mouse, po, p.o. 10 mg/kg, read-out: time of peak concentration (converted)",~0.667 h
same,AUC(0-inf),[1]; [3],2010 ng·h/mL
same,AUC(0-t),[1]; [3],1980 ng·h/mL
same,Cmax,[1]; [3],1070 ng/mL
same,half-life,[1]; [3],4.1 h
same,Cl,[1]; p.o. 10 mg/kg,145 mL/min/kg
same,peak concentration,[1]; p.o. 10 mg/kg,about 1.0 μg/ml
same,IC50,all eight cell lines,< 5.3 µM

# — article PMC8602566 (Frontiers in Oncology, 2021)
